The text below walks through data of ChEMBL document CHEMBL4311992, “Discovery of 3-(((9H-purin-6-yl)amino)methyl)-4,6-dimethylpyridin-2(1H)-one derivatives as novel tubulin polymerization inhibitors for treatment of cancer” (Eur J Med Chem, 2019).

Experiment [1] concerns the target Fibroblast growth factor receptor 4 (Homo sapiens) (UniProt P22455). Briefly: Inhibition of recombinant human FGFR4 (442 to 755 residues) assessed as residual activity at 10 uM using poly(Glu, Tyr) 4:1 as substrate measured after 40 mins in presence of [gamma33P]ATP by scintillation counting method.
Experiment [2] relates to PLC-PRF-5. Briefly: Antiproliferative activity against human PLC/PRF/5 cells assessed as reduction in cell viability after 72 hrs by MTT assay. Format: functional, cell-based. The following applies: PLC-PRF-5, 72 h. Background: Tetrazolium assays rely on reduction of a dye to a coloured formazan, in cell work by metabolically active cells.
Experiment [3] concerns the target NUAK family SNF1-like kinase 1 (Homo sapiens) (UniProt O60285). Nature of the experiment: Inhibition of recombinant human ARK5 (2 to end residues) assessed as residual activity at 10 uM using KKKVSRSGLYRSPSMPENLNRPR as substrate measured after 40 mins in presence of [gamma33P]ATP by scintillation counting method.
Experiment [4] deals with Eukaryotic elongation factor 2 kinase (Homo sapiens), O00418 [H23R]. Briefly: Inhibition of recombinant human EEF2K H23R mutant (2 to end residues) assessed as residual activity at 10 uM using RKKFGESEKTKTKEFL as substrate measured after 40 mins in presence of [gamma33P]ATP by scintillation counting method.
Experiment [5] relates to Discoidin domain-containing receptor 2 (Homo sapiens), Q16832 [UNDEFINED MUTATION]. Briefly: Inhibition of recombinant human DDR2 S642A mutant (467 to end residues) assessed as residual activity at 10 uM using KKSRGDYMTMQIG as substrate measured after 40 mins in presence of [gamma33P]ATP by scintillation counting method.
Experiment [6] has as its target CDC7/Cyclin B1 (Homo sapiens) (UniProt P14635+O00311). Briefly: Inhibition of recombinant full-length human CDC7/cyclinB1 assessed as residual activity at 10 uM using Histone H1 as substrate measured after 120 mins in presence of [gamma33P]ATP by scintillation counting method. Format: protein-complex assay.
Experiment [7] has as its target Mitogen-activated protein kinase kinase kinase 2 (Homo sapiens) (UniProt Q9Y2U5). Nature of the experiment: Inhibition of recombinant full-length human MEKK2 assessed as residual activity at 10 uM using myelin basic protein as substrate measured after 40 mins in presence of [gamma33P]ATP by scintillation counting method.
The target in experiment [8] is Protein kinase C epsilon type (Homo sapiens) (UniProt Q02156). Briefly: Inhibition of recombinant human PKCepsilon (2 to end residues) assessed as residual activity at 10 uM using ERMRPRKRQGSVRRRV as substrate measured after 40 mins in presence of [gamma33P]ATP by scintillation counting method.
Experiment [9] deals with Receptor-type tyrosine-protein kinase FLT3 (Homo sapiens), P36888 [D835Y]. Nature of the experiment: Inhibition of recombinant human Flt3 D835Y mutant (564 to end residues) assessed as residual activity at 10 uM using EAIYAAPFAKKK as substrate measured after 40 mins in presence of [gamma33P]ATP by scintillation counting method.
In experiment [10] the target is Serine/threonine-protein kinase Nek2 (Homo sapiens) (UniProt P51955). Nature of the experiment: Inhibition of recombinant full-length human NEK2 assessed as residual activity at 10 uM using myelin basic protein as substrate measured after 40 mins in presence of [gamma33P]ATP by scintillation counting method.
Experiment [11] addresses cGMP-dependent protein kinase 1 (Homo sapiens) (UniProt Q13976). Briefly: Inhibition of recombinant full-length human PKG1alpha assessed as residual activity at 10 uM using RRRLSFAEPG as substrate measured after 40 mins in presence of [gamma33P]ATP by scintillation counting method.
Experiment [12] addresses Protein kinase C gamma type (Homo sapiens) (UniProt P05129). Briefly: Inhibition of recombinant full-length human PKCgamma assessed as residual activity at 10 uM using histone H1 as substrate measured after 40 mins in presence of [gamma33P]ATP by scintillation counting method.
For experiment [13], the target named is Serine/threonine-protein kinase 17A (Homo sapiens) (UniProt Q9UEE5). Nature of the experiment: Inhibition of recombinant full-length human DRAK1 assessed as residual activity at 10 uM using KKLNRTLSFAEPG as substrate measured after 40 mins in presence of [gamma33P]ATP by scintillation counting method.
Experiment [14] deals with Eukaryotic translation initiation factor 2-alpha kinase 3 (Homo sapiens) (UniProt Q9NZJ5). Briefly: Inhibition of recombinant human PEK (536 to end residues) assessed as residual activity at 10 uM using RSRSRSRSRSRSRSR as substrate measured after 40 mins in presence of [gamma33P]ATP by scintillation counting method.
For experiment [15], the system named is HCT-116. Nature of the experiment: Induction of apoptosis in human HCT116 cells assessed as early apoptotic cells at 25 nM measured after 48 hrs by Annexin V-FITC/propidium iodide staining-based flow cytometry (reference value: 0.418%). The experiment is classed as functional. For orientation: A flow cytometer gives signals particle by particle.
For experiment [16], the target named is Dual specificity protein kinase CLK3 (Homo sapiens) (UniProt P49761). Briefly: Inhibition of recombinant full-length human CLK3 assessed as residual activity at 10 uM using ERMRPRKRQGSVRRRV as substrate measured after 40 mins in presence of [gamma33P]ATP by scintillation counting method.
The target in experiment [17] is Calcium/calmodulin-dependent protein kinase type 1D (Homo sapiens) (UniProt Q8IU85). Nature of the experiment: Inhibition of recombinant full-length human CaMK1delta assessed as residual activity at 10 uM using calmodulin as substrate measured after 40 mins in presence of [gamma33P]ATP by scintillation counting method.
The target of experiment [18] is Serine/threonine-protein kinase 25 (Homo sapiens) (UniProt O00506). Briefly: Inhibition of human STK25 (1 to 308 residues) using RLGRDKYKTLRQIRQ as substrate measured after 40 mins in presence of [gamma33P]ATP by scintillation counting method. On the set-up: scale not given: the % may be the effect or the level left.
Experiment [19] has as its target Ephrin type-B receptor 1 (Homo sapiens) (UniProt P54762). Briefly: Inhibition of recombinant human EphB1 (564 to end residues) assessed as residual activity at 10 uM using KVEKIGEGTYGVVYK as substrate measured after 40 mins in presence of [gamma33P]ATP by scintillation counting method.
In experiment [20] the test system is Tyrosine-protein kinase BTK (Homo sapiens), Q06187 [R28H]. Briefly: Inhibition of full-length recombinant human BTK R28H mutant assessed as residual activity at 10 uM using LSNLYHQGKFLQTFCGSPLYRRR as substrate measured after 40 mins in presence of [gamma33P]ATP by scintillation counting method.
Experiment [21] deals with Serine/threonine-protein kinase 32A (Homo sapiens) (UniProt Q8WU08). Briefly: Inhibition of recombinant full-length human STK32A assessed as residual activity at 10 uM using casein as substrate measured after 120 mins in presence of [gamma33P]ATP by scintillation counting method.
In experiment [22] the target is Beta-adrenergic receptor kinase 1 (Homo sapiens) (UniProt P25098). Nature of the experiment: Inhibition of recombinant full-length human GRK2 assessed as residual activity at 10 uM using casein as substrate measured after 40 mins in presence of [gamma33P]ATP by scintillation counting method.
Experiment [23] concerns the target Dual specificity protein kinase CLK1 (Homo sapiens) (UniProt P49759). Briefly: Inhibition of recombinant human CLK1 (130 to end residues) assessed as residual activity at 10 uM using ERMRPRKRQGSVRRRV as substrate measured after 40 mins in presence of [gamma33P]ATP by scintillation counting method.

Beta-adrenergic receptor kinase 1 (Homo sapiens), sequence (P25098 whole entry): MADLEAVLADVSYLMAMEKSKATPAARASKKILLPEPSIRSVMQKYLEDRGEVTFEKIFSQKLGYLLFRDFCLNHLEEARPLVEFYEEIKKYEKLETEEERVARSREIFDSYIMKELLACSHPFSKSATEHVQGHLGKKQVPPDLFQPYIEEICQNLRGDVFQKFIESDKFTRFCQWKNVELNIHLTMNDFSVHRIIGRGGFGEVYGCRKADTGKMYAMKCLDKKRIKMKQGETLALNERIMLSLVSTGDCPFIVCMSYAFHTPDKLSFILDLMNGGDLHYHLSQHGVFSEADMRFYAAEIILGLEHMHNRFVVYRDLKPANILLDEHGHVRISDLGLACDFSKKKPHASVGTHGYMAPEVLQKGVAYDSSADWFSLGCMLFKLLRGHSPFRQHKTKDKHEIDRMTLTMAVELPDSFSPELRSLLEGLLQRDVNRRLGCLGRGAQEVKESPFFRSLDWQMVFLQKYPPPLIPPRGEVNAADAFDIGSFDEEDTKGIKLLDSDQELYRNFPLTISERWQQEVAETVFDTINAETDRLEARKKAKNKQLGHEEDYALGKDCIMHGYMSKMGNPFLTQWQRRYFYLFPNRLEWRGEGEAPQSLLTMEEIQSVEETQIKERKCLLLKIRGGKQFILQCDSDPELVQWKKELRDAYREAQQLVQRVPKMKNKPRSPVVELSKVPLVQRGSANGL
Eukaryotic translation initiation factor 2-alpha kinase 3 (Homo sapiens), sequence (Q9NZJ5 whole entry): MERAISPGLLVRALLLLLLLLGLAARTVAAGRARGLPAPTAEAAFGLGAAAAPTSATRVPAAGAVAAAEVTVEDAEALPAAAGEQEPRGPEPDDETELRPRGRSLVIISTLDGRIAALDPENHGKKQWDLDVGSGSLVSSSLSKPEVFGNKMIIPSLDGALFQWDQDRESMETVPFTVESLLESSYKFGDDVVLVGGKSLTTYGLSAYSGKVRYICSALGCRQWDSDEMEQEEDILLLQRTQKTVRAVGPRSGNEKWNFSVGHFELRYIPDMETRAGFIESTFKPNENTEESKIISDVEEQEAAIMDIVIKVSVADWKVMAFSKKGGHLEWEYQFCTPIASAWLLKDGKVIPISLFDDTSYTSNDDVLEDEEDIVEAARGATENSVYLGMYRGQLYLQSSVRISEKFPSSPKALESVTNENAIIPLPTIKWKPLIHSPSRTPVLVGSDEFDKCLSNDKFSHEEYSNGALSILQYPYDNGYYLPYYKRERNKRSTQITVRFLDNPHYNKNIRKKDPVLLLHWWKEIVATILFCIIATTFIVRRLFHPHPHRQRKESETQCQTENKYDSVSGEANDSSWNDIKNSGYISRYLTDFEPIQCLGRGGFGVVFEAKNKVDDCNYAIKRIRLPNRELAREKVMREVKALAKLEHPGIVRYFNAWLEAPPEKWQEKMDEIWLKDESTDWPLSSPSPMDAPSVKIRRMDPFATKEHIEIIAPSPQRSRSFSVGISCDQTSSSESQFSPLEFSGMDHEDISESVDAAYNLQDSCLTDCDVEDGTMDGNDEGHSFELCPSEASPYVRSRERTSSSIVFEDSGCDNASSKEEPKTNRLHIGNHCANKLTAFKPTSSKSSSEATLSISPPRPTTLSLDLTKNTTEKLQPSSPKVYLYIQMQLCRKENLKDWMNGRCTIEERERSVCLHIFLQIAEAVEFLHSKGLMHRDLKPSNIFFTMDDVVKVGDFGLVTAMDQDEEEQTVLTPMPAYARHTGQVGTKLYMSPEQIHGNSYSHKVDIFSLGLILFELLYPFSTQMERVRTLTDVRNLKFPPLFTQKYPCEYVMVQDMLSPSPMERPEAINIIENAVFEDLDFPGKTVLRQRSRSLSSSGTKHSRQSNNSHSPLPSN
Discoidin domain-containing receptor 2 (Homo sapiens), Q16832 [UNDEFINED MUTATION], sequence (Q16832 whole entry, looked up, stated change not applied, the tested form may be a part): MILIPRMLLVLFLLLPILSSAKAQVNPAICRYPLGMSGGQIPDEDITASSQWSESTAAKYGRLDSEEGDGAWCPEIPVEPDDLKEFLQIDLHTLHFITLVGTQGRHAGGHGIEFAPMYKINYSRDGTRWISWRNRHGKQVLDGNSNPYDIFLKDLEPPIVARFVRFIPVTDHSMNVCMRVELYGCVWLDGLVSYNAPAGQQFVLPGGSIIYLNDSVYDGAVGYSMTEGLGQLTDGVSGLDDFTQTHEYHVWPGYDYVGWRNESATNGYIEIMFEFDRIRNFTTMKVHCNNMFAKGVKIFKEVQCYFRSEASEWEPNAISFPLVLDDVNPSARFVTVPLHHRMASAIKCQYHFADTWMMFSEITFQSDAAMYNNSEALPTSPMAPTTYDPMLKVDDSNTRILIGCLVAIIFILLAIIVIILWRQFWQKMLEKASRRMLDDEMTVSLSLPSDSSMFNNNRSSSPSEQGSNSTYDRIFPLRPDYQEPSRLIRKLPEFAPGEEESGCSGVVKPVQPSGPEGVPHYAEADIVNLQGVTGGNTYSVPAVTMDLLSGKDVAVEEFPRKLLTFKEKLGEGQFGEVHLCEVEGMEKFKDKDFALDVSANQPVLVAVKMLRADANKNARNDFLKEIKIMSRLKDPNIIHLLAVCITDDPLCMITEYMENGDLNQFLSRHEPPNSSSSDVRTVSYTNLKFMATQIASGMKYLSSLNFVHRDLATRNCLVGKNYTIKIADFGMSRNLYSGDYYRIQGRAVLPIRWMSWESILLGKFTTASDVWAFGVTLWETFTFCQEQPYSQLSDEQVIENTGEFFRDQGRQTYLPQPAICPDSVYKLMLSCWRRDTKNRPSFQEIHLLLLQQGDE
Dual specificity protein kinase CLK3 (Homo sapiens), sequence (P49761 whole entry, looked up): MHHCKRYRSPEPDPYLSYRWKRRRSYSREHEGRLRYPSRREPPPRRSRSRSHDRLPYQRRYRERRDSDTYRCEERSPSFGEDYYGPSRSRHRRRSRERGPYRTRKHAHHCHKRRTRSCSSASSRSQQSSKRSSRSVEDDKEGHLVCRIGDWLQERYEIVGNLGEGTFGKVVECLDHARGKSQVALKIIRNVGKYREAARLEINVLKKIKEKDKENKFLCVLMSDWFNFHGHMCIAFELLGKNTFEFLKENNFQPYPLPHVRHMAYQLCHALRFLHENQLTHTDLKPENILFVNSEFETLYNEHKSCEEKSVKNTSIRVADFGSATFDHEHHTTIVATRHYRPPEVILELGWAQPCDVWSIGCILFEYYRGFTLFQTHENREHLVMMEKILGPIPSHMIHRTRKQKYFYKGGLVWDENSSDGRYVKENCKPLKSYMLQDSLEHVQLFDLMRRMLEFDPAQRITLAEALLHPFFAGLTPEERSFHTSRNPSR
Serine/threonine-protein kinase Nek2 (Homo sapiens), sequence (P51955 whole entry): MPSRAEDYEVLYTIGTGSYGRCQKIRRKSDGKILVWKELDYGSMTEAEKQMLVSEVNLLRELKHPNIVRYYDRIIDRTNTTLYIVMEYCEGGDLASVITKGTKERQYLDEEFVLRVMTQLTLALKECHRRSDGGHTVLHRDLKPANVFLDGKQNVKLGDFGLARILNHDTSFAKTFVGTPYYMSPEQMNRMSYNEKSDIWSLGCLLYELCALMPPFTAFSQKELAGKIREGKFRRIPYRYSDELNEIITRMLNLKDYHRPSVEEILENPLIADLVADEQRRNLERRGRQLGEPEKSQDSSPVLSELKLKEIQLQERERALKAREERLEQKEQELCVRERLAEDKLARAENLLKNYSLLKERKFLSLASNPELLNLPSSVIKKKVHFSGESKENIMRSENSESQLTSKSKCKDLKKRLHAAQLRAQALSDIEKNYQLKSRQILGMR
Serine/threonine-protein kinase 32A (Homo sapiens), sequence (Q8WU08 whole entry): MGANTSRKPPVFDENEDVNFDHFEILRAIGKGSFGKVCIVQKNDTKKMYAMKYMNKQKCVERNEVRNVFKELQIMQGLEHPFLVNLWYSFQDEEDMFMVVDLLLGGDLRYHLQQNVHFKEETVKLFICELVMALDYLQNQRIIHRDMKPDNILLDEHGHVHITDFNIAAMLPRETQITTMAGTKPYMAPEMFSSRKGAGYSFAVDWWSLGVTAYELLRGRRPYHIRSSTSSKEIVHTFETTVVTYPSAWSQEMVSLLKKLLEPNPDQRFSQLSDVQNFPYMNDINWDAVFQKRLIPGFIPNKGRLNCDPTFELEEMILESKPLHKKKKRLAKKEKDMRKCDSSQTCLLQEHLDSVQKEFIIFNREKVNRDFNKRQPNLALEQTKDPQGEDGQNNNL

The IC50 is the point on the concentration scale where inhibition reaches its midpoint. `Cc1cc(C)c(CNc2nc(Cl)nc3c2ncn3C2CCCC2)c(=O)[nH]1`: the Activity in experiment [1] is 100%; in experiment [3], 108%; in [4], 104%; in experiment [5], 97%; in [6], 102%; in [7], 104%. For the same compound, the Activity is 95% in experiment [8]; 85.5% in [9]; 101% in experiment [10]; 99.5% in experiment [11]; 108% in [12]; 91.5% in [13]. The Activity in experiment [14] was 116%; in experiment [15] it was 1.54%; in [16], 116%; in experiment [17] it was 107%; in experiment [18], 106%; in experiment [19], 104%. Moreover, the Activity in [20] was 98%; in [21], 100%; in experiment [22], 102%; in [23] it was 108%. Further, the IC50 in [2] came to 0.286 µM.
